Earlier results in US7365077B2, “Piperazine bis-amide derivatives and their use as antagonists of the orexin receptor” (SmithKline Beecham p.l.c., priority 2001, dated 2008).
No end group written: not given here.

Tests used:
[1] = system: orexin receptors; settings: central administration at the onset of the normal sleep period, rat
[2] = system: freely-feeding rats; settings: central administration, 4 hour time period

orexin-A: Peptide ligand (agonist) of the orexin receptors; human sequence given in b87 (QPLPDCCRQKTCSCRLYELLHGAGNHAAGILTL; ends and bridges not checked; cysteine pairing not given here; UniProt O43612 34-66, looked up)
effect on arousal [1]: dose-related increase in arousal | increase in food intake over control rats receiving vehicle [2]: approximately four-fold
